± gives the expanded uncertainty stated by the source.
How the values were obtained:
[1] = xn = mol fraction of the nth substance listed; conditions: 101 kPa, Liquid; for viscosity: Capillary tube (Ostwald / Ubbelohde) method
[2] = refractive index (Na D-line) (dimensionless); xn = mol fraction of the nth substance listed; conditions: 101 kPa, Liquid, Standard Abbe refractometry

COc1ccccc1 [anisole] + CCCCc1ccccc1
x1 = 1
Conditions | mass density, [1] [kg/m3] | refractive index, [2] | viscosity, [1] [mPa·s]
293.15 K | 993.8 ± 0.44 | 1.5177 ± 0.0007 | 1.084 ± 0.01
303.15 K | 984.37 ± 0.44 | 1.5124 ± 0.0007 | 0.931 ± 0.009

COc1ccccc1 [anisole] + CCCc1ccccc1
x1 = 1
Conditions | mass density, [1] [kg/m3] | refractive index, [2] | viscosity, [1] [mPa·s]
293.15 K | 993.8 ± 0.44 | 1.5177 ± 0.0007 | 1.084 ± 0.01
303.15 K | 984.37 ± 0.44 | 1.5124 ± 0.0007 | 0.931 ± 0.009

COc1ccccc1 [anisole] + CCc1ccccc1
Conditions | mass density, [1] [kg/m3] | refractive index, [2] | viscosity, [1] [mPa·s]
293.15 K, x1 = 0.1061 | 879.21 ± 0.23 | 1.4977 ± 0.0007 | 0.691 ± 0.006
293.15 K, x1 = 0.2202 | 892.9 ± 0.24 | 1.5 ± 0.0007 | 0.721 ± 0.006
293.15 K, x1 = 0.3206 | 905.19 ± 0.26 | 1.502 ± 0.0007 | 0.752 ± 0.006
293.15 K, x1 = 0.4278 | 918.51 ± 0.28 | 1.5041 ± 0.0007 | 0.789 ± 0.007
293.15 K, x1 = 0.5402 | 932.69 ± 0.31 | 1.5065 ± 0.0007 | 0.834 ± 0.007
293.15 K, x1 = 0.6322 | 944.49 ± 0.33 | 1.5086 ± 0.0007 | 0.876 ± 0.008
293.15 K, x1 = 0.7282 | 956.99 ± 0.36 | 1.5108 ± 0.0007 | 0.923 ± 0.008
293.15 K, x1 = 0.8198 | 969.11 ± 0.39 | 1.513 ± 0.0007 | 0.973 ± 0.009
293.15 K, x1 = 0.8994 | 979.84 ± 0.41 | 1.5153 ± 0.0007 | 1.02 ± 0.009
293.15 K, x1 = 1 | 993.8 ± 0.44 | 1.5177 ± 0.0007 | 1.084 ± 0.01
303.15 K, x1 = 0.1061 | 870.49 ± 0.23 | 1.4922 ± 0.0007 | 0.616 ± 0.005
303.15 K, x1 = 0.2202 | 884.19 ± 0.24 | 1.4944 ± 0.0007 | 0.639 ± 0.006
303.15 K, x1 = 0.3206 | 896.45 ± 0.26 | 1.4964 ± 0.0007 | 0.662 ± 0.006
303.15 K, x1 = 0.4278 | 909.71 ± 0.28 | 1.4986 ± 0.0007 | 0.689 ± 0.006
303.15 K, x1 = 0.5402 | 923.84 ± 0.31 | 1.501 ± 0.0007 | 0.725 ± 0.006
303.15 K, x1 = 0.6322 | 935.58 ± 0.33 | 1.5031 ± 0.0007 | 0.759 ± 0.007
303.15 K, x1 = 0.7282 | 948.02 ± 0.36 | 1.5053 ± 0.0007 | 0.798 ± 0.007
303.15 K, x1 = 0.8198 | 960.07 ± 0.38 | 1.5075 ± 0.0007 | 0.841 ± 0.008
303.15 K, x1 = 0.8994 | 970.71 ± 0.41 | 1.5099 ± 0.0007 | 0.878 ± 0.008
303.15 K, x1 = 1 | 984.37 ± 0.44 | 1.5124 ± 0.0007 | 0.931 ± 0.009
